Experimental findings from US8071314B2 (priority 2001, dated 2011) are described below.

Molecules are shown by their SMILES. “And” between values parts separate entries of the source, which are not always exact repeats. Identical values can stand only once. Like-named read-outs stand apart in the source and are kept apart here.

The assay concerns N-methyl-D-aspartate (NMDA) receptor. In kind it is cell-based, mouse.

As to `NC(CCCP(=O)(O)O)C(=O)O` [D-APV, 2-amino-5-phosphonovalerate], where the note is “50 μM D-APV, all genotypes, hippocampal slices, 100 Hz tetanus, 100 μM picrotoxin in bath”, the “LTP in the presence of the NMDA antagonist” value is listed as “completely abolished”. Further, the “Posttetanus fEPSP slopes, averaged over 180 min (relative to baseline)” value reads like this: (n=3) 107±14% and 97±9%; (n=5) 106±10%.
